± gives the standard deviation of the averaged measurements.
System: Renilla luciferase (RLuc)
Assay: normalised percent inhibition of luminescence (vs positive and negative controls); higher = stronger inhibition
Details: metal salt concentration 1 mM; 100 mM HEPES buffer
Procedure: (§1)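 Concentration-response (>=11 concentrations) of metal salts on purified FLuc, NLuc or RLuc luminescence in screening (SC) or 100 mM HEPES (H) buffer; salt pre-incubated with enzyme 10 min at RT, read 10 min after substrate. Normalised percent inhibition vs plate positive (PTC-124, isradipine, BTS) and DMSO negative controls; triplicate wells.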

| normalised percent inhibition [%] | SMILES |
| --- | --- |
| 103 ± 2.6 | [Cl][Fe][Cl] [iron(II) chloride] |
| 69.3 ± 4.8 | [Cl][Pt-2]([Cl])([Cl])[Cl].[K+].[K+] [potassium tetrachloroplatinate(II)] |

Same assay, conditions: metal salt concentration 1 mM; screening conditions buffer

| normalised percent inhibition [%] | SMILES |
| --- | --- |
| 75.5 ± 7.8 | [Cl][Fe]([Cl])[Cl] [iron(III) chloride] |
| 93.3 ± 3.1 | [Cl][Fe][Cl] [iron(II) chloride] |
| 95.3 ± 9.6 | [Cl][Pt-2]([Cl])([Cl])[Cl].[K+].[K+] [potassium tetrachloroplatinate(II)] |

Same assay, conditions: metal salt concentration 2.5 mM; 100 mM HEPES buffer

| normalised percent inhibition [%] | SMILES |
| --- | --- |
| 105.7 ± 0.74 | [Cl][Fe]([Cl])[Cl] [iron(III) chloride] |
| 108.1 ± 0.56 | [Cl][Fe][Cl] [iron(II) chloride] |
| 97.4 ± 5.5 | [Cl][Pt-2]([Cl])([Cl])[Cl].[K+].[K+] [potassium tetrachloroplatinate(II)] |

Same assay, conditions: metal salt concentration 2.5 mM; screening conditions buffer

| normalised percent inhibition [%] | SMILES |
| --- | --- |
| 94.4 ± 4.9 | [Cl][Fe]([Cl])[Cl] [iron(III) chloride] |
| 105 ± 2 | [Cl][Fe][Cl] [iron(II) chloride] |
| 105.3 ± 0.77 | [Cl][Pt-2]([Cl])([Cl])[Cl].[K+].[K+] [potassium tetrachloroplatinate(II)] |

Same assay, conditions: metal salt concentration 5 mM; 100 mM HEPES buffer

| normalised percent inhibition [%] | SMILES |
| --- | --- |
| 106.2 ± 0.43 | [Cl][Fe]([Cl])[Cl] [iron(III) chloride] |
| 108 ± 1.1 | [Cl][Fe][Cl] [iron(II) chloride] |
| 106 | [Cl][Pt-2]([Cl])([Cl])[Cl].[K+].[K+] [potassium tetrachloroplatinate(II)] |

Same assay, conditions: metal salt concentration 5 mM; screening conditions buffer

| normalised percent inhibition [%] | SMILES |
| --- | --- |
| 105 ± 1.1 | [Cl][Fe]([Cl])[Cl] [iron(III) chloride] |
| 106 ± 0.51 | [Cl][Fe][Cl] [iron(II) chloride] |
| 106.2 ± 0.36 | [Cl][Pt-2]([Cl])([Cl])[Cl].[K+].[K+] [potassium tetrachloroplatinate(II)] |

System: NanoLuc luciferase (NLuc)
Assay: as above
Details: metal salt concentration 0.0001 mM; 100 mM HEPES buffer
Procedure: as §1

| normalised percent inhibition [%] | SMILES |
| --- | --- |
| -1.25 ± 4.4 | [Cl][Fe]([Cl])[Cl] [iron(III) chloride] |
| -0.558 ± 2.3 | [Cl][Fe][Cl] [iron(II) chloride] |
| 1.21 ± 6.3 | [Cl][Pt-2]([Cl])([Cl])[Cl].[K+].[K+] [potassium tetrachloroplatinate(II)] |

Same assay, conditions: metal salt concentration 0.00025 mM; 100 mM HEPES buffer

| normalised percent inhibition [%] | SMILES |
| --- | --- |
| -4.27 ± 8.5 | [Cl][Fe]([Cl])[Cl] [iron(III) chloride] |
| -2.01 ± 4.6 | [Cl][Fe][Cl] [iron(II) chloride] |
| -0.51 ± 2.1 | [Cl][Pt-2]([Cl])([Cl])[Cl].[K+].[K+] [potassium tetrachloroplatinate(II)] |

Same assay, conditions: metal salt concentration 0.0005 mM; 100 mM HEPES buffer

| normalised percent inhibition [%] | SMILES |
| --- | --- |
| -1.65 ± 4.2 | [Cl][Fe]([Cl])[Cl] [iron(III) chloride] |
| -2.14 ± 1.8 | [Cl][Fe][Cl] [iron(II) chloride] |
| 2.19 ± 0.21 | [Cl][Pt-2]([Cl])([Cl])[Cl].[K+].[K+] [potassium tetrachloroplatinate(II)] |

Same assay, conditions: metal salt concentration 0.001 mM; 100 mM HEPES buffer

| normalised percent inhibition [%] | SMILES |
| --- | --- |
| -0.138 ± 3.3 | [Cl][Fe]([Cl])[Cl] [iron(III) chloride] |
| -0.324 ± 3.7 | [Cl][Fe][Cl] [iron(II) chloride] |
| 0.76 ± 1.2 | [Cl][Pt-2]([Cl])([Cl])[Cl].[K+].[K+] [potassium tetrachloroplatinate(II)] |

Same assay, conditions: metal salt concentration 0.002 mM; screening conditions buffer

| normalised percent inhibition [%] | SMILES |
| --- | --- |
| 0.19 ± 3.9 | [Cl][Fe]([Cl])[Cl] [iron(III) chloride] |
| -2.42 ± 2.8 | [Cl][Fe][Cl] [iron(II) chloride] |
| 6.88 ± 2.2 | [Cl][Pt-2]([Cl])([Cl])[Cl].[K+].[K+] [potassium tetrachloroplatinate(II)] |

Same assay, conditions: metal salt concentration 0.005 mM; screening conditions buffer

| normalised percent inhibition [%] | SMILES |
| --- | --- |
| 4.14 ± 6.8 | [Cl][Fe]([Cl])[Cl] [iron(III) chloride] |
| 1.43 ± 8.8 | [Cl][Fe][Cl] [iron(II) chloride] |
| 2.83 ± 7.4 | [Cl][Pt-2]([Cl])([Cl])[Cl].[K+].[K+] [potassium tetrachloroplatinate(II)] |

Same assay, conditions: metal salt concentration 0.01 mM; screening conditions buffer

| normalised percent inhibition [%] | SMILES |
| --- | --- |
| 8.93 ± 3 | [Cl][Fe]([Cl])[Cl] [iron(III) chloride] |
| 5.7 ± 1.8 | [Cl][Fe][Cl] [iron(II) chloride] |
| 1.24 ± 5.6 | [Cl][Pt-2]([Cl])([Cl])[Cl].[K+].[K+] [potassium tetrachloroplatinate(II)] |

Same assay, conditions: metal salt concentration 0.02 mM; screening conditions buffer

| normalised percent inhibition [%] | SMILES |
| --- | --- |
| 14.5 ± 4.1 | [Cl][Fe]([Cl])[Cl] [iron(III) chloride] |
| -0.122 ± 6.1 | [Cl][Fe][Cl] [iron(II) chloride] |
| 5.06 ± 1.3 | [Cl][Pt-2]([Cl])([Cl])[Cl].[K+].[K+] [potassium tetrachloroplatinate(II)] |

Same assay, conditions: metal salt concentration 0.025 mM; 100 mM HEPES buffer

| normalised percent inhibition [%] | SMILES |
| --- | --- |
| 5.06 ± 5.1 | [Cl][Fe]([Cl])[Cl] [iron(III) chloride] |
| 3.65 ± 3.3 | [Cl][Fe][Cl] [iron(II) chloride] |
| 4.56 ± 2.9 | [Cl][Pt-2]([Cl])([Cl])[Cl].[K+].[K+] [potassium tetrachloroplatinate(II)] |

Same assay, conditions: metal salt concentration 0.05 mM; 100 mM HEPES buffer

| normalised percent inhibition [%] | SMILES |
| --- | --- |
| 15 ± 1.8 | [Cl][Fe]([Cl])[Cl] [iron(III) chloride] |
| 5.35 ± 0.67 | [Cl][Fe][Cl] [iron(II) chloride] |
| 10.3 ± 3.5 | [Cl][Pt-2]([Cl])([Cl])[Cl].[K+].[K+] [potassium tetrachloroplatinate(II)] |

Same assay, conditions: metal salt concentration 0.05 mM; screening conditions buffer

| normalised percent inhibition [%] | SMILES |
| --- | --- |
| -3.71 ± 1.9 | [Cl][Fe]([Cl])[Cl] [iron(III) chloride] |
| -5.75 ± 4.8 | [Cl][Fe][Cl] [iron(II) chloride] |
| 18.1 ± 3.8 | [Cl][Pt-2]([Cl])([Cl])[Cl].[K+].[K+] [potassium tetrachloroplatinate(II)] |

Reference: the supplement of paper PMC11628255, “Interference of metal ions on the bioluminescent signal of firefly, Renilla, and NanoLuc luciferases in high-throughput screening assays” (Frontiers in Chemistry, 2024)
